Entries after “also recorded” stand apart in the source; their conditions may differ.
Key:
MCF-7 cells [1] = assay: Annexin V-FITC/PI double staining flow cytometry, apoptosis and necrosis; assay type: cell-based, human; conditions: MCF-7 treated at IC50 concentration, 24 h; for % Late apoptosis: untreated control 0.33%; for % Early apoptosis: untreated control 0.37%; for % Necrosis: untreated control 1.15%; for % Total apoptosis: untreated control 1.85%
Description: Apoptosis, which is a programmed cell death, is considered as an important way to express cell death among anticancer agents. Most of the anticancer agents can induce apoptosis in cancerous cells. To examine whether the potent cytotoxic effect of 11, 12, 13 and 27 was attributed to apoptosis or necrosis, annexin V-FITC propidium iodide (PI) double staining flow cytometry assay was applied. […] The cells were then stained with annexin V-FITC propidium iodide (PI) and the percentage of apoptotic cells was determined by flow cytometry. […] Compounds 11, 12, 13 and 27 induced necrotic effect 5.74%, 7.23%, 6.39% and 2.07%, respectively in comparison to the untreated negative control MCF-7 cells (1.15%).
Cell death by apoptosis was detected by flow cytometric method using Annexin-V/FITC propidium iodide Apoptosis Detection Kit Catalog #: K101-25; Biovision, USA). MCF-7 cells were seeded at a density of 2 × 10 ^5 cells/well in 24-well plate, treated with the test compounds 11, 12, 13 and 27 at different concentrations and incubated at 37 °C for 24 h in 5% CO2 atmosphere. Cells were collected and suspended in 500 µl binding buffer and then 5 µl of Annexin V-FITC and 5 µl of PI were added and mixed. The mixture was incubated for 5 min in the dark at room temperature. Cell apoptosis analyses were performed using FACSCalibur (Becton Dickinson FACS, San Jose, CA) flow cytometer.

MDA-MB-231 = assay: In vitro cytotoxicity screening, MTT assay; conditions: Homo sapiens, MDA-MB-231, 24 h, read-out: In vitro Cytotoxicity (IC50, µM) MDA-MB-231
Description: Two human breast cancer cell lines, namely, MDA-MB-231 and MCF-7 were obtained from American Type Culture Collection (ATCC) via a holding company for biological products and vaccines (VACSERA), Cairo, Egypt. […] The reagents used were RPMI-1640 medium, MTT, DMSO (sigma co., St. Louis, USA), and Fetal bovine serum (GIBCO, UK). […] MTT is a colorimetric assay based on the conversion of the yellow tetrazolium bromide (MTT) to a purple formazan derivative by mitochondrial succinate dehydrogenase in viable cells. Cell lines were cultured in RPMI-1640 medium with 10% foetal bovine serum. Antibiotics added were 100 units/ml penicillin and 100 µg/ml streptomycin maintained at 37 °C in a 5% CO2 incubator. The cell lines were seeded at a density of approximately 1.0 × 10 ^4 cells/well in a 96-well plate at 37 °C for 48 h under 5% CO2. Different concentrations of compounds were added and incubated for 24 h. After 24 h of drug treatment, 20 µl of MTT staining solution at 5 mg/ml was added to each well and incubated for 4 h at 37 °C. After 4 h, 100 µl of dimethyl sulfoxide (DMSO) were added into each well to dissolve the purple formazan crystals formed. The absorbance was recorded at 570 nm using a plate reader (EXL 800, USA). The relative cell viability in percentage was calculated as (A570 of treated samples/A570 of untreated sample) X 100 [22],[23].

MCF-7 cells [2] = assay: Cell cycle analysis by flow cytometry (PI staining); assay type: cell-based, human; conditions: MCF-7 treated at IC50 concentration; for percentage of cells in pre-G1 phase (%Pre-G1) / percentage of cells in G2/M phase (%G2/M) / percentage of cells in S phase (%S) / percentage of cells in G0/G1 phase (%G0-G1): 24 h; for percentage of cells in pre-G1 phase (%Pre-G1): untreated control 1.85%; for percentage of cells in G2/M phase (%G2/M): untreated control 11.84%; for percentage of cells in S phase (%S): untreated control 29.95%; for percentage of cells in G0/G1 phase (%G0-G1): untreated control 58.21%
Protocol: For further investigation of the promising antiproliferative activity of compounds 11, 12, 13 and 27 on breast cancer MCF-7 cell line, cell cycle analysis was carried out using flow cytometric assay. […] The flow cytometric assay results were compared to the negative control untreated MCF-7 cell line.
MCF-7 cells were seeded in 24-well plate at a density of 2 × 10^5 cells/well, treated with the test compounds 11, 12, 13 and 27 at different concentrations and incubated at 37 °C for 24 h in 5% CO2 atmosphere. The cells were washed with ice-cold phosphate buffer saline (PBS) twice and fixed in 70% ice-cold ethanol overnight and then suspended in (PBS) containing PI (DNA staining solution) at concentration of 50 µg/mL, 0.1 mg/mL RNAase A (Sigma, USA) and 0.05% Triton X-100. Cells were analysed by flow cytometry after 30 min at 37 n the dark using FACSCalibur (Becton Dickinson FACS, San Jose, CA) flow cytometer. The cell cycle distributions were measured using Cell-Quest software.
Suppl. S3. Cell cycle analysis for compounds 11, 12, 13 and 27 […]
Assay : Cell Cycle Analysis
Kit used : ab139418_Propidium Iodide Flow Cytometry Kit/BD
Assay samples : Cell culture
Table S3. Cell cycle phase distribution in MCF-7 cell line treated with vehicle control and the newly synthesised compounds; 11, 12, 13 and 27. […]

PARP-2 enzyme = target: T1, PARP-2 enzyme (Homo sapiens, UniProt Q9UGN5); assay: Poly (ADP-ribose) polymerase 2 (PARP-2) inhibition assay (colorimetric kit); assay type: biochemical; conditions: for IC50: in vitro enzyme assay
T1 construct: purchased BPS Bioscience 80,581
T1 sequence (Q9UGN5 whole entry): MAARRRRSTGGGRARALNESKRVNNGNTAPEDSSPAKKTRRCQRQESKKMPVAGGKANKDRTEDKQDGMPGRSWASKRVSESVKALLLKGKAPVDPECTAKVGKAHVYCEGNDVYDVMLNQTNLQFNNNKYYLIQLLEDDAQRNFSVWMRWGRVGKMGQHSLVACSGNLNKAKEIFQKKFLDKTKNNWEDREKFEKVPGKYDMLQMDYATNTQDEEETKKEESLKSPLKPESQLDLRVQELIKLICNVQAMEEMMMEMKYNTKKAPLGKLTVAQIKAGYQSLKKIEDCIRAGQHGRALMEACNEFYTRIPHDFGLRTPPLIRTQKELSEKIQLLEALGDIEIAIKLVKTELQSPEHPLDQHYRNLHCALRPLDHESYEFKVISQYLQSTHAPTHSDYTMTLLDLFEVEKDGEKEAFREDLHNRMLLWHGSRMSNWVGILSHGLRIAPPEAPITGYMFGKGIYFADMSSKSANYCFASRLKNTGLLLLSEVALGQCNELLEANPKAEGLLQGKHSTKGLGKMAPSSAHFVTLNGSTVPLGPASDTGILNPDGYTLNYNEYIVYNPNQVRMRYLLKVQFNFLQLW
Protocol: Results were expressed as IC50 values (Table 2).
The PARP-2 inhibitory activity of the test compounds was assayed using PARP-2 Colorimetric Activity Assay Kit (BPS Bioscience, catalog 80,581, San Diego, CA, USA) following the manufacturer’s protocol. Briefly, histone protein mixture was coated on a 96-well microtiter plate and incubated at 4 °C overnight, washed with phosphate-buffered saline with tween-20 (PBST) three times then, the wells were blocked by adding blocking buffer 3 and incubated at room temperature for 60–90 min. After that, the plate was washed with PBST buffer three times. The master mixture which contains the PARP buffer, PARP assay mixture, activated DNA and distilled water was added to each well then, the inhibitor solution (test compound) was added. The reaction was initiated by adding PARP-2 enzyme to the wells and the plate was incubated for 1 h at room temperature. After 1 h, the reaction mixture was discarded, and the plate was washed with PBST buffer three times. Finally, the plate was treated with Streptavidin–Horseradish Peroxidase (HRP) and incubated for 30 min at room temperature and then washed with PBST buffer. The colorimetric HRP substrate was added to each well and incubated at room temperature until the positive control well developed blue color. Sulphuric acid was added to each well after the blue color development. The absorbance was read at 450 nm using UV/Vis spectrophotometer microplate reader.
Suppl. S2. In vitro PARP-2 enzyme inhibition assay
Researcher : Dr. Nadeen Ghobashy email:elghobashynadeen@gmail.com mob.01008873340
Reader : ROBONIK P2000 Eliza Reader wl 450 nm

%inh of PARP-2 (Table S2 raw data) (PARP-2 enzyme; conc 0.01 (ng/ml)) [%] | %inh of PARP-2 (Table S2 raw data) (PARP-2 enzyme; conc 0.1 (ng/ml)) [%] | %inh of PARP-2 (Table S2 raw data) (PARP-2 enzyme; conc 1 (ng/ml)) [%] | %inh of PARP-2 (Table S2 raw data) (PARP-2 enzyme; conc 10 (ng/ml)) [%] | IC50 (PARP-2 enzyme) [µM] | Compound | % Late apoptosis (MCF-7 cells [1]) [%] | % Early apoptosis (MCF-7 cells [1]) [%] | % Necrosis (MCF-7 cells [1]) [%] | % Total apoptosis (MCF-7 cells [1]) [%] | IC50 (MDA-MB-231) [µM] | cell cycle arrest phase (MCF-7 cells [2]) | percentage of cells in pre-G1 phase (%Pre-G1) (MCF-7 cells [2]) [%] | percentage of cells in G2/M phase (%G2/M) (MCF-7 cells [2]) [%] | percentage of cells in S phase (%S) (MCF-7 cells [2]) [%] | percentage of cells in G0/G1 phase (%G0-G1) (MCF-7 cells [2]) [%]
28.75 | 43.61 | 58.88 | 84.97 | 0.19 ± 0.01 | O=C(CCN1CCCCC1)Nc1ccc(-c2nc3cc(Cl)ccc3o2)cc1 [Compound 11, N-(4-(5-chlorobenzoxazol-2-yl)phenyl)-3-(piperidin-1-yl)propanamide] | 23.02 | 16.31 | 5.74 | 45.07 | 5.63 ± 0.3 | cell growth arrest@ G1; also recorded: cell cycle arrest at G0/G1 phase | 45.07 | 7.22 | 24.76 | 68.02
35.69 | 53.11 | 67.93 | 90.18 | 0.07 ± 0.004 | O=C(CCN1CCOCC1)Nc1ccc(-c2nc3cc(Cl)ccc3o2)cc1 [Compound 12, N-(4-(5-chlorobenzoxazol-2-yl)phenyl)-3-morpholinopropanamide] | 3.72 | 22.52 | 7.23 | 33.47 | 6.14 ± 0.5 |  | 33.47 | 32.04 | 26.18 | 41.78
30.58 | 46.82 | 71.31 | 88.69 | 0.106 ± 0.006 | CN1CCN(CCC(=O)Nc2ccc(-c3nc4cc(Cl)ccc4o3)cc2)CC1 [Compound 13, N-(4-(5-chlorobenzoxazol-2-yl)phenyl)-3-(4-methylpiperazin-1-yl)propanamide] | 10.99 | 12.28 | 6.39 | 29.66 | 7.52 ± 0.6 | cell growth arrest@ G2/M; also recorded: cell cycle arrest at G2/M phase | 29.66 | 26.51 | 28.51 | 44.98
37.25 | 52.67 | 73.48 | 88.84 | 0.057 ± 0.003 | CCN(CC)CCC(=O)Nc1ccc(-c2nc3cc(Cl)ccc3o2)cc1 [Compound 27, N-(4-(5-chlorobenzoxazol-2-yl)phenyl)-3-(diethylamino)propanamide] | 4.58 | 19.26 | 2.07 | 25.91 | 11.3 ± 0.9 |  | 25.91 | 4.46 | 33.16 | 62.38
